Source: patent publication US20130274196A1, “METHOD FOR TREATMENT OF INFLAMMATORY DISEASE AND DISORDER” (HEALOR LTD., priority 2010, published 2013)
Entries after “also recorded” stand apart in the source; their conditions may differ. The star is where a group is joined. Myristoyl = CCCCCCCCCCCCCC(=O)*

Tests used:
[1] = tested on: macrophages; assay: Macrophage infiltration in skin wound (Iba-1 staining); assay type: in vivo, C57BL/6J mouse; settings: daily treatment, five days post-wounding
Experimental: The effect of MPDY-1 on macrophage infiltration was also shown by Iba-1 staining. Iba-1 is a general marker for macrophages. […] As above, a two-cm longitudinal incision was done on the upper back of a C57BL/6J mouse. Following wounding, a sterile pad was sutured to the mouse's skin. Animals were treated daily with MPDY-1 (n=6). Five days post-wounding, when inflammatory phase reaches its peak, the mice were sacrificed, skin tissues were embedded in paraffin and immunohistochemical staining was performed utilizing anti-Iba-1 antibodies.

[2] = tested on: activated macrophages; assay: Macrophage activation in skin wound (MAC-2 staining); assay type: in vivo, C57BL/6J mouse; settings: daily treatment, 5 days; p(control vs 10 μg)=0.0028
Experimental: The effect of MPDY-1 on macrophage activation was also shown by MAC-2 staining. MAC-2 is a specific marker for activated macrophages. […] A two-cm longitudinal incision was done as described above. Animals were treated daily with DPBS^−/− (Control) or MPDY-1 in the specified concentrations (n=6). After 5 days immunohistochemical staining was performed utilizing anti-MAC-2 antibodies. Bar […]. (*p(control Vs. MPDY-1 10 μg)=0.0028).

[3] = tested on: IKK; assay: TNFα induced IKK activation in keratinocytes (phospho-IKKa/b Western blot); assay type: cell-based, Murine; settings: 1 hour pretreatment, TNFα 35 ng/ml 15 minutes
Experimental: Murine primary keratinocytes were grown for 4 days to full confluence in Low Ca^+2 MEM. Cells were pretreated with designated concentration of MPDY-1 as described in the figure for 1 hour, prior to TNFα induction. Following MPDY-1 pretreatment, cells were incubated with TNFα 35 ng/ml for 15 minutes. Reaction was stopped by adding ice-cold dPBS−/− and keratinocytes were homogenized in RIPA buffer. Samples were subjected to SDS PAGE Western Blot analysis, utilizing phospho-IKKa/b (Ser176/180 antibody).

[4] = tested on: keratinocytes; assay: Cytokine secretion in LPS, TNFα or IL-17 activated keratinocytes treated with peptide PKCα inhibitors (ELISA); assay type: cell-based, BALB/C mice
Experimental: To determine their effects, keratinocytes were derived from newborn BALB/C mice skin. The cells were incubated for 5 days in 24 wells plate. Cells were then incubated with PBS −/− as control or stimulated by LPS, TNFα, or IL-17. PKCα inhibitors were added as indicated. Medium containing secreted cytokines was collected after 48 hr and analyzed using ELISA. FIG. 50 is a tabular summary of cytokine secretion.

[5] = tested on: EAE mice; assay: Experimental allergic encephalomyelitis (EAE), MOG35-55/CFA immunized mice; assay type: in vivo, C57BL/6J mice; settings: for Score on day 18 / Score on day 29 / Score on day 37: EAE scale 0-6; for EAE score on the initial day: scale 0-6
[6] = tested on: histamine induced pruritus; assay: Histamine prick test model of pruritus; assay type: in vivo, healthy volunteers; settings: for Pruritus score: scale 0-4, individual subject
Experimental: Forearms of individual subjects were injected with histamine solution and placebo. The formulation of Example 4 was topically applied with MPDY-1 at various concentrations and pruritus was assessed over a time course as shown in FIGS. 39-42.
This test was performed by placing a drop of a solution containing a possible allergen on the skin, and a series of scratches or needle pricks allow the solution to enter the skin. The extract enters into the outer layer of the skin (epidermis) using a fine needle (such as a. 26G disposable needle). This testing is not painful, and generally there is no bleeding involved since the needle only scratches the surface of the skin. If the skin develops a red, raised itchy area (called a wheal), it is as a result of allergic reaction to that allergen. This is called a positive reaction. A drop of extract is introduced through a fine needle (such as a No. 26 disposable needle). The test causes no discomfort and minimal trauma so that controls and negative test show only the site of the prick; if anything.
26G needles were utilized to introduce histamine stock (Histatrol Positive Control Histamine, 1 mg/ml, code #HIST14999V, Trupharm). The test was conducted on healthy volunteers in a double-blind, randomized test. The formulations were applied on the forearms. Three treatment areas were chosen and marked (the surface of the forearm from the elbow to the wrist was divided transversely into proximal, middle and distal thirds); the areas were pricked prior the below treatments.
An area was treated with the active formulation in a double-blind manner, for 10 minutes—marked as A.
An area was treated with the Placebo in a double-blind manner, for 10 minutes—marked as C.
A color photograph was taken at time zero (T0), after 10, 20, 30 minutes.
Pruritus questionnaire was answered by the subjects 5 and 15 minutes after treatment.
Subjects were provided with pruritus sensation forms and asked to indicate the level of pruritus sensed from 0 (no response) to 4 (uncontrollable pruritus) at different time intervals.

[7] = tested on: C57BL mice; assay: Incision wounds treated 7 days, severe inflammation incidence (Example 10); assay type: in vivo; settings: 1 μM daily for 7 days
Experimental: Wounds were performed on the back of C57BL mice by incision and were treated daily for 7 days with: (i) PBS, control; (ii) 1 μM of the PKCα inhibitor of SEQ ID NO: 6; (iii) 1 μM insulin (Humulin, Eli Lilly, USA); or (iv) a mixture of 1 μM PKCα inhibitor and 1 μM insulin.

[8] = tested on: STZ-induced diabetic C57BL/6J mice; assay: Wound healing in STZ-induced diabetic mice; assay type: in vivo
Experimental: Full thickness skin incisions (20 mm) were performed on the upper back of anesthetized streptozocin (STZ)-injected (175 mg/kg body weight) diabetic, citrate buffer injected (6 mice/group) non-diabetic, and non-injected (6 mice/group), C57BL/6J mice. Periodical blood glucose monitoring was performed by measuring glucose levels from tail vein after STZ injection. […] Following incision, STZ-induced diabetic wounds were treated daily by application of PBS (7/6 mice/group), insulin (0.1 units/ml) (6 mice/group), the PKCa inhibitor of SEQ ID NO:6 (1 μg/ml) (7/5 mice/group) or a formulation (herein designated HO/03/03) containing insulin and the N-myristoylated PKCα inhibitor of SEQ ID NO: 6 (7/6 mice/group) directly to the surgical dressing. Biopsies were collected 9 days post-wounding. Wounds were excised from euthanized animals for evaluation of wound-healing parameters by histology and immunohistochemistry.
Wounds were assessed for epidermal closure by Keratin 14 staining. Wounds were considered closed when complete epidermal staining was observed across the wound gap. Dermal contraction was considered when both dermal edges were visible in a fixed field ×100 magnification utilizing H&E staining. Epidermal differentiation was assessed by Keratin 1 staining.
The organization of hypodermis was assessed by the presence (or absence) of hypodermis at both wound edges. Granulation tissue formation was assessed by the presence of fibroblasts and collagen fibers in the wound bed. The wound was considered positive for granulation tissue formation when a continuous layer of granulation tissue was present in the wound gap. In addition, we have defined 3 specific histological parameters characterizing severe inflammation of diabetic wounds: (i) abscess formation at the wounded area, (ii) excessive leukocytosis (>100 cells in a fixed field (×200)) and (iii) high white blood cells (WBC)/red blood cells (RBC) ratio within the blood vessels shown in a fixed field (×200). When at least 2 of these parameters are present at the wound gap, the wound is considered severely inflamed.

[9] = tested on: keratinocytes; assay: Cytokine secretion in stimulated keratinocytes treated with PKCδ activator (ELISA); assay type: cell-based, BALB/C mice; settings: stimulated by LPS or TNFα, 48 hr
Experimental: (§1) PKCδ activators were also shown to have an anti-inflammatory effect on keratinocytes and splenocytes. Keratinocytes were derived from newborn BALB/C mice skin. The cells were incubated for 5 days in 24 wells plate. Cells were then incubated with PBS −/− as control or stimulated by LPS or TNFα. The PKCδ […] DAP-1 (SEQ ID NO: 34) was added. Medium containing secreted cytokines was collected after 48 hr and analyzed using ELISA. FIG. 43 is a tabular summary showing cytokine secretion in splenocytes stimulated with LPS. FIG. 44 is a tabular summary of cytokine secretion in keratinocytes stimulated by TNFα.

[10] = tested on: splenocytes; assay: Cytokine secretion in LPS stimulated splenocytes treated with PKCδ activator; assay type: cell-based
Experimental: as §1

[11] = 9-days post wounding, percent of wounds in group, insulin 0.1 units, HO/02 1 ug/ml
[12] = 9-days post wounding, percent of wounds in group, insulin 0.1 units, SEQ ID NO: 6 1 ug/ml

## Myristoyl-Phe-Ala-Arg-Lys-Gly-Ala-Leu-Arg-Gln-OH (Myristoyl-FARKGALRQ-OH; SMILES CCCCCCCCCCCCCC(=O)N[C@@H](Cc1ccccc1)C(=O)N[C@@H](C)C(=O)N[C@@H](CCCNC(=N)N)C(=O)N[C@@H](CCCCN)C(=O)NCC(=O)N[C@@H](C)C(=O)N[C@@H](CC(C)C)C(=O)N[C@@H](CCCNC(=N)N)C(=O)N[C@@H](CCC(N)=O)C(=O)O) [MPDY-1]
[1]
  macrophage infiltration (Iba-1 positive cells per field): dose dependent effect
[2]
  activation of macrophages (MAC-2 positive cells per field): significantly inhibited
[3]
  TNFα induced IKK activation in keratinocytes: significantly reduced TNFα induced IKK activation
  concentration exhibiting the strongest inhibition of IKK activation (lowest concentration): 0.1 mg/mL
[4]; IL-17A activated
  cytokine secretion from IL-17A activated keratinocytes: decrease cytokine secretion
[4]; LPS and TNFα activated
  cytokine secretion from LPS and TNFα activated keratinocytes: decrease cytokine secretion
[4]; stimulated by LPS, TNFα, or IL-17, medium collected after 48 hr
  cytokine secretion in keratinocytes: effective in decreasing cytokine secretion
[5]; 0.1 mg/kg
  The initial day (of illness signs): 13 days
  Score on day 18: 2.571
  Score on day 29: 2.000
  Score on day 37: 1.500
  EAE score on the initial day: 1.000
[5]; 0.1 mg/kg (0.1 μg/ml)
  EAE severity / score compared to control group: lower score during most of the experiment days; also recorded: reduced EAE severity
  delay of development of EAE clinical conditions compared to control group: two days later than the control group; also recorded: two days delay
[5]; 1 mg/kg
  The initial day (of illness signs): 11 days
  Score on day 18: 3.143
  Score on day 29: 3.286
  Score on day 37: 3.071
  EAE score on the initial day: 0.214
[5]; 1 mg/kg i.p. three times a week, n=7
  Number of dead mice during 49 days: 2
[5]; concentration of 0.1 μg/ml, control group score 2.86
  average group score at the end of the experiment (day 42): 1.93
[6]; 5 minutes after histamine, MPDY-1 1 μg/ml (A1)
  Pruritus score: 3
[6]; 5 minutes after histamine, MPDY-1 10 μg/ml (A2)
  Pruritus score: 2
[6]; 15 minutes after histamine, MPDY-1 1 μg/ml (A1)
  Pruritus score: 1
[6]; 15 minutes after histamine, MPDY-1 10 μg/ml (A2)
  Pruritus score: 0
[6]; topical application
  redness, inflammation and pruritus compared with control over the time course: significantly attenuated redness, inflammation and pruritus
[7]
  decrease of severe wound inflammation incidence, as compared to control: 33.3%
[7]; PBS control 60
  Incidence of severe inflammation in wound (%): 40%
[8]; [11]
  Dermal closure (H&E): 17%
  Epidermal closure (K14): 17%
  Epidermal differentiation (Kl): 17%
[8]; [12]
  Granulation tissue: 50%
  Hypodermis: 10%
  Severe inflammation: 30%
[8]; 9 days post-wounding
  overall healing effect in diabetic wounds: only partial healing effects

## H-His-Phe-Glu-Asp-Trp-Ile-Asp-His-Phe-Glu-Asp-Trp-Ile-Asp-OH (H-HFEDWIDHFEDWID-OH) [DAP-1]
[9]
  inflammatory cytokine secretion in keratinocytes: significantly decease inflammatory cytokine secretion
[10]
  inflammatory cytokine secretion in splenocytes: significantly decease inflammatory cytokine secretion
